The source of these data is BindingDB's records for doi:10.1038/nchembio.481 (CGI Pharmaceuticals, 2011).

The target of this experiment is Tyrosine-protein kinase BTK (Homo sapiens, UniProt Q06187). The experiment can be described thus: Btk Kinase Assay. The following applies: pH 7.5; 23 °C. The source says:
Biochemical assay using Lanthascreen (human, full-lenght, C-terminal v5-His6 expressed in Sf9 cell) assay from Invitrogen.

By IC50 is commonly meant the concentration that gives 50% inhibition. Read a high IC50 as weaker potency in that assay.

Structures are written as SMILES.

Chain of Tyrosine-protein kinase BTK (Q06187 whole entry): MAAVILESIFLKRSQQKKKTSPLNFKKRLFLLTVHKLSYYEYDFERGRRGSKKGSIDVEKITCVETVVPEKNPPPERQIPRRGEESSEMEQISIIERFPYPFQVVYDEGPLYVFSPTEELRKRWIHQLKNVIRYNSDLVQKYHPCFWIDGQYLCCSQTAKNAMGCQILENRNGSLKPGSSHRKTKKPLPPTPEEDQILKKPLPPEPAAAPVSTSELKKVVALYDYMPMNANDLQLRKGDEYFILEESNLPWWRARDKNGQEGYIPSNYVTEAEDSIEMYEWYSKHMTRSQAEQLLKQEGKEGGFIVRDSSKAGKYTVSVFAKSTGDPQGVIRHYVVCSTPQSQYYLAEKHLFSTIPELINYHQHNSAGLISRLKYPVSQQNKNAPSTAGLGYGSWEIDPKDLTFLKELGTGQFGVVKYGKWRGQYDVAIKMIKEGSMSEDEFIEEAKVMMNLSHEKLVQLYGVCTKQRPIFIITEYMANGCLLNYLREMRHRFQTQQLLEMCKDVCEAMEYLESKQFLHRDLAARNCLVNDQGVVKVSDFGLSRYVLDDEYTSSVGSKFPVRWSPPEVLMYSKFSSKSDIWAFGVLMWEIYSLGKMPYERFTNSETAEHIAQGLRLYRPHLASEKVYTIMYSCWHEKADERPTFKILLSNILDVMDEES

The molecule `Cc1c(NC(=O)c2cccc(C(C)(C)C)c2)cccc1-c1cn(C)c(=O)c(Nc2ccc(C(=O)N3CCOCC3)cc2)n1` [3-(tert-Butyl)-N-(2-methyl-3-(4-methyl-6-((4-(morpholine-4-carbonyl)phenyl)amino)-5-oxo-4,5-dihydropyrazin-2-yl)phenyl)benzamide, 6] returned an IC50 of 3.14 µM.
Then `Cc1c(NCc2ccc(C(C)(C)C)cc2)cccc1-c1cn(C)c(=O)c(Nc2ccc(C(=O)N3CCOCC3)cc2)n1` [5-(3-((4-(tert-Butyl)benzyl)amino)-2-methylphenyl)-1-methyl-3-((4-(morpholine-4-carbonyl)phenyl)amino)pyrazin-2(1H)-one, 5], with 9.06 µM.
`Cc1c(N)cccc1-c1cn(C)c(=O)c(Nc2ccc(C(=O)N3CCOCC3)cc2)n1` [5-(3-Amino-2-methylphenyl)-1-methyl-3-((4-(morpholine-4-carbonyl)phenyl)amino)pyrazin-2(1H)-one, 3] displayed an IC50 of 5.44 µM.
Then `Cc1c(NC(=O)c2ccc(C(C)(C)C)nc2)cccc1-c1cn(C)c(=O)c(Nc2ccc(C(=O)N3CCOCC3)cc2)n1` [6-(tert-Butyl)-N-(2-methyl-3-(4-methyl-6-((4-(morpholine-4-carbonyl)phenyl)amino)-5-oxo-4,5-dihydropyrazin-2-yl)phenyl)nicotinamide, 7], with 0.65 µM.
Then `CC(=O)Nc1cccc(-c2cn(C)c(=O)c(Nc3ccc(C(=O)N4CCOCC4)cc3)n2)c1C` [CID46942382], with 2.69 µM.
